Measurements: patent US7595320B2, “Hydrazinocarbonyl-thieno[2,3-C]pyrazoles, process for preparing them, compositions containing them and use thereof” (Aventis Pharma S.A., priority 2005, dated 2009)

Experiments:
Type in all cases: biochemical
CDK2/cycline E = target: T1, CDK2/cycline E (Homo sapiens, UniProt P24941); experiment: CDK2/cyclineE Flashplate test in 96-well format; conditions: CDK2/cycline E complex, 1 μM ATP
T1 construct: made in house; host or cells: Sf21 insect cells (baculovirus coinfection)
Description: Two recombinant baculoviruses bearing the human sequences coding, respectively, for CDK2 and cyclineE (the latter bearing a C-terminal hexahistidine tag) are used to coinfect Sf21 insect cells. Two to three days after the start of coinfection, the cells are harvested by centrifugation and then stored at −40° C. until the time of use.
A format in streptavidin-coated 96-well plates is used to test the activity of the compounds on the kinase activity of CDK2/cycline E.
To perform this test, the biotinylated peptide substrate, a fragment of the protein pRb (biotinyl-[…]-OH), is dissolved at a concentration of 1 mM in kinase buffer (HEPES/NaOH 50 mM, NaCl 1 mM, MgCl2 5 mM, pH 7.5) in order to constitute a stock solution stored at −20° C. in the form of 110 μL aliquots. On the day of the experiment, an aliquot of this solution is thawed and diluted in kinase buffer containing 1 mM of dithiothreitol, added to the buffer extemporaneously, in order to obtain a concentration of 14.3 μM. 70 μL of this solution are added to each well of the Flashplate in order to obtain a final substrate concentration of 10 μM during the enzymatic reaction performed in a final volume of the reaction medium of 100 μL (cf. below).
Intermediate dilutions of inhibitors (products of the invention) at various concentrations are prepared in DMSO from stock solutions at 10 mM in separate tubes. Dilutions at 1000 μM, 333.3 μM, 111.1 μM, 37.03 μM, 12.35 μM, 4.11 μM and 1.37 μM are thus prepared. One μL of each of these solutions (or 1 μL of DMSO for the controls) is transferred into the wells of the test plate.
19 μl of a solution of a mixture of adenosine triphosphate (ATP) and of ATPγ^33P in kinase buffer at a total concentration of 5.26 μM of ATP and 52.6 μCi/ml of ^33P are then added to each well. The enzymatic reaction is initiated by adding 10 μL per well of a 200 nM solution of CDK2/cycline E in kinase buffer containing 1 mM of dithiothreitol (or 10 μL of kinase buffer containing 1 mM of dithiothreitol for the reaction blanks).
After addition of each of the reagents, the final volume of each well is 100 μL, the final concentration of substrate is 10 μM, the final inhibitor concentrations are 10 μM, 3.33 μM, 1.11 μM, 0.37 μM, 0.123 μM, 0.041 μM and 0.014 μM (according to the concentration of the intermediate dilution), the final ATP concentration is 1 μM, the final amount of ^33P is 1 μCi/well, and the final concentration of CDK2/cycline E complex is 20 nM.
After addition of all of the reagents, the test plate is incubated at 30° C. with orbital shaking at 650 rpm.
When the incubation is complete, the plate is washed three times with 300 μL per well of PBS (phosphate-buffered saline, pH=7.4, without calcium or magnesium, reference 10010-015, Gibco BRL). The incorporation of ^33P to the peptide is quantified by scintillation counting with a Packard Topcount.NXT machine.

Aurora2 = target: T2, Aurora2 (Homo sapiens, UniProt O14965); experiment: Aurora2 enzymatic test, NuMA phosphorylation with [33P]ATP, Flashplate; conditions: whole recombinant protein, 1 μM ATP
T2 construct: Aurora2: whole recombinant protein comprising an N-terminal histidine tail; His tag (N); made in house; host or cells: E. coli
T2 sequence (O14965 1-403): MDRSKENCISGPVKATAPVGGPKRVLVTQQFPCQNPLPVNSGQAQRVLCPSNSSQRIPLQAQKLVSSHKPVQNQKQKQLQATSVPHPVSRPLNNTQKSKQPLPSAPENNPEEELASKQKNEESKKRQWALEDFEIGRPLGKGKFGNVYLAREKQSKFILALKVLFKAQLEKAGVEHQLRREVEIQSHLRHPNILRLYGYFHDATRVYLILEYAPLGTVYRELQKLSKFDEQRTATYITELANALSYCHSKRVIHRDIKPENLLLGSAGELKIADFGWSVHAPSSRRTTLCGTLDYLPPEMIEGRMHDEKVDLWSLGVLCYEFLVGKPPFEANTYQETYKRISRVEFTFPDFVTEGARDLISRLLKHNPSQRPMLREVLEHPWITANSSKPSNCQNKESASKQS
Description: (§1) The inhibitory effect of compounds with respect to the kinases Aurora1 and Aurora2 is determined by means of an enzymatic test using radioactivity detection.
(§2) The kinase activity of Aurora1 and Aurora2 is evaluated via the phosphorylation of the substrate Numa-histidine in the presence of radiolabelled ATP ([^33P]ATP) using 96-well Flashplate plates in which the nickel chelate is bound to the surface of the microplate. The amount of ^33P phosphate incorporated into the NuMA substrate is proportional to the activity of the enzyme Aurora1 or Aurora2.
Aurora2: whole recombinant protein comprising an N-terminal histidine tail, was expressed in E. coli and purified to more than 82%.
(§3) NuMA (nuclear protein that combines with the mitotic apparatus): 424-amino acid fragment, expressed in E. coli, the N-terminal end of which has been labeled with histidine, and used as substrate for the two Aurora enzymes.
(§4) The microplates used are 96-well Flash-Plate plates, nickel chelate (Perkin-Elmer, model SMP107).
(§5) The products to be evaluated are incubated in a reaction volume of 100 μL per well, in the presence of 10 nM of Aurora1 or Aurora2, 500 nM of NuMA substrate in a buffer composed of 50 mM Tris/HCl (pH 7.5), 50 mM NaCl, 5 mM MgCl2 (Aurora-B) or 10 mM MgCl2 (Aurora-A) and 1 mM DTT, at 37° C.
(§6) 80 μL of enzyme/substrate incubation buffer are distributed in each well, followed by 10 μL of product to be evaluated, at variable concentrations. The reaction is initiated by adding 1 μM final of ATP containing 0.2 μCi of [^33P]ATP (10 μL). After incubating for 30 minutes, the reaction is quenched by simple removal of the reaction buffer and each well is washed twice with 300 μl of Tris/HCl buffer. The radioactivity is then measured in each well using a Packard, Top-Count model scintillation machine.
(§7) The control enzymatic activity of Aurora is expressed by the number of counts per minute obtained over 30 minutes after subtracting the background noise (reaction mixture containing no enzyme). The evaluation of the various test products is expressed as a percentage of inhibition of the Aurora activity relative to the control.

Aurora1 = target: T3, Aurora1 (Homo sapiens, UniProt Q96GD4); experiment: Aurora1 enzymatic test, NuMA phosphorylation with [33P]ATP, Flashplate; conditions: Aurora-B/INCENP-C3 recombinant complex, 1 μM ATP
T3 construct: His tag (N); made in house
Description: as §1, §2
Aurora1: Aurora-B/INCENP-C3 recombinant complex, purified to about 50%, the N-terminal end of Aurora-B of which has been labeled with histidine.
as §3, §4, §5, §6, §7

Tie2 = target: T4, Tie2 (Homo sapiens, UniProt Q02763); experiment: Tie2 kinase test, phosphorylation of PLC with GST-Tie2; conditions: GST-Tie2 intracellular domain 776-1124
T4 construct: amino acids of the intracellular domain 776-1124; made in house; host or cells: baculovirus expression (pFastBacGT vector)
Description: The coding sequence of human Tie2 corresponding to the amino acids of the intracellular domain 776-1124 was generated by PCR using the cDNA isolated from a human placenta as a model. This sequence was introduced into a pFastBacGT baculovirus expression vector in the form of a GST fusion protein.
The inhibitory effect of the molecules is determined in a test of phosphorylation of PLC with Tie2 in the presence of GST-Tie2 purified to about 80% homogeneity. The substrate is composed of the SH2-SH3 fragments of PLC expressed in the form of a GST fusion protein.
The kinase activity of Tie2 is measured in a MOPS 20 mM pH 7.2 buffer, containing 10 mM MgCl2, 10 mM MnCl2, 1 mM DTT, 10 mM of glycerophosphate. In a 96-well FlashPlate plate maintained on ice, a reaction mixture is deposited, composed of 70 μL of kinase buffer containing 100 ng of enzyme GST-Tie2 per well. Next, 10 μL of the test molecule diluted in DMSO to a maximum concentration of 10% are added. For a given concentration, each measurement is performed four times. The reaction is initiated by adding 20 μL of solution containing 2 μg of GST-PLC, 2 μm of cold ATP and 1 μCi of ^33P[ATP]. After incubation for one hour at 37° C., the reaction is stopped by adding 1 volume (100 μl) of 200 mM EDTA. After removal of the incubation buffer, the wells are washed three times with 300 μL of PBS. The radioactivity is measured on a MicroBeta1450 Wallac.
The inhibition of the Tie2 activity is calculated and expressed as a percentage of inhibition relative to the control activity determined in the absence of compound.

T4 sequence (Q02763 776-1124): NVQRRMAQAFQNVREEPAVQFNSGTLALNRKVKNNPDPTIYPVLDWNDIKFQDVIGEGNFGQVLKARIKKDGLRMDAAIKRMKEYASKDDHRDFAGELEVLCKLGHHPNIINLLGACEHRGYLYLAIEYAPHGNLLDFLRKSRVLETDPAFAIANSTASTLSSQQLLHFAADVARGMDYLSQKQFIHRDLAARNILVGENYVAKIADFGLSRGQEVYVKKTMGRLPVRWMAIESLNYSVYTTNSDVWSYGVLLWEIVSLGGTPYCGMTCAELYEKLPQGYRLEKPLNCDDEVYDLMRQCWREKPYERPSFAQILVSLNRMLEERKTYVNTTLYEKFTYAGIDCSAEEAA
T3 sequence (Q96GD4 whole entry, species assumed): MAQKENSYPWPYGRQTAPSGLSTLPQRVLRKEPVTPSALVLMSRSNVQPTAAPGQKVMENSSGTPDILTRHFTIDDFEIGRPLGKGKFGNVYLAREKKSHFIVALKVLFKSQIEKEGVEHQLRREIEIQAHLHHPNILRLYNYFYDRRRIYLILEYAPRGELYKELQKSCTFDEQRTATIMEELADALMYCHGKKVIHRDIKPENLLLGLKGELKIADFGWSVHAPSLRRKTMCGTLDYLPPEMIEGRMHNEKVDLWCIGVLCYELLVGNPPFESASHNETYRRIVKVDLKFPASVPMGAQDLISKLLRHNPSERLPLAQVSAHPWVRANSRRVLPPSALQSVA
T3 sequence (Q9NQS7 835-903 partner limits assumed, species assumed): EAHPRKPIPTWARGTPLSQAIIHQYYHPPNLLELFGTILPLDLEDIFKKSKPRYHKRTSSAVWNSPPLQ

SMILES | IC50 (CDK2/cycline E) | IC50 (Aurora2) | IC50 (Aurora1) | IC50 (Tie2)
CN(NC(=O)c1cc2c(NC(=O)c3ccc(CN4CCCC4)cc3)n[nH]c2s1)c1ccccc1 [Example 18a, N-[5-(N′-methyl-N′-phenylhydrazinocarbonyl)-1H-thieno[2,3-c]pyrazol-3-yl]-4-pyrrolidin-1-ylmethylbenzamide] | 181 nM | 14 nM | 122 nM | 624 nM
CN(NC(=O)c1cc2c(NC(=O)c3ccc(CN4CCC4)cc3)n[nH]c2s1)c1ccccc1 [Example 19, 4-azetidin-1-ylmethyl-N-[5-(N′-methyl-N′-phenylhydrazinocarbonyl)-1H-thieno[2,3-c]pyrazol-3-yl]benzamide] | 239 nM | 26 nM | 304 nM | 888 nM
CN(C)CCN(C)Cc1ccc(C(=O)Nc2n[nH]c3sc(C(=O)NN(C)c4ccccc4)cc23)cc1 [Example 20a, 4-{[(2-dimethylaminoethyl)methylamino]methyl}-N-[5-(N′-methyl-N′-phenylhydrazinocarbonyl)-1H-thieno[2,3-c]pyrazol-3-yl]benzamide] | 347 nM | 70 nM | 190 nM | 842 nM
CN(NC(=O)c1cc2c(NC(=O)c3cccc(CN4CCOCC4)c3)n[nH]c2s1)c1ccccc1 [Example 22a, N-[5-(N′-methyl-N′-phenylhydrazinocarbonyl)-1H-thieno[2,3-c]pyrazol-3-yl]-3-morpholin-4-ylmethylbenzamide] | 717 nM | 81 nM | 147 nM | 2210 nM

Stronger by IC50 (CDK2/cycline E), values ahead:

IC50 (CDK2/cycline E) | IC50 (Aurora2) | IC50 (Aurora1) | IC50 (Tie2) | SMILES
175 nM | 7 nM | 59 nM | 482 nM | CN(NC(=O)c1cc2c(NC(=O)c3ccc(CN4CCCCC4)cc3)n[nH]c2s1)c1ccccc1 [Example 17a, N-[5-(N′-methyl-N′-phenylhydrazinocarbonyl)-1H-thieno[2,3-c]pyrazol-3-yl]-4-piperidin-1-ylmethylbenzamide]
93 nM | 35 nM | 335 nM | 230 nM | CN(NC(=O)c1cc2c(NC(=O)c3ccc(CN4CCCCC4)cc3)n[nH]c2s1)c1ccc(Cl)cc1 [Example 17b, N-[5-(N′-(4-chlorophenyl)-N′-methylhydrazinocarbonyl)-1H-thieno[2,3-c]-pyrazol-3-yl]-4-piperidin-1-ylmethylbenzamide]
96 nM | 50 nM | 287 nM | 388 nM | CN(NC(=O)c1cc2c(NC(=O)c3ccc(CN4CCCC4)cc3)n[nH]c2s1)c1ccc(Cl)cc1 [Example 18b, N-[5-(N′-(4-chlorophenyl)-N′-methylhydrazinocarbonyl)-1H-thieno[2,3-c]pyrazol-3-yl]-4-pyrrolidin-1-ylmethylbenzamide]
109 nM | 75 nM | 155 nM | 369 nM | CN(C)CCN(C)Cc1ccc(C(=O)Nc2n[nH]c3sc(C(=O)NN(C)c4ccc(Cl)cc4)cc23)cc1 [Example 20b, N-{5-[N′-(4-chlorophenyl)-N′-methylhydrazinocarbonyl]-1H-thieno[2,3-c]pyrazol-3-yl}-4-{[(2-dimethylaminoethyl)methylamino]methyl}benzamide]
122 nM | 14 nM | 55 nM | 430 nM | CN(NC(=O)c1cc2c(NC(=O)c3ccc(CN4CCCOCC4)cc3)n[nH]c2s1)c1ccccc1 [Example 21a, N-[5-(N′-methyl-N′-phenylhydrazinocarbonyl)-1H-thieno[2,3-c]pyrazol-3-yl]-4-perhydro-1,4-oxazepin-4-ylmethylbenzamide]
82 nM | 34 nM | 160 nM | 301 nM | CN(NC(=O)c1cc2c(NC(=O)c3ccc(CN4CCCOCC4)cc3)n[nH]c2s1)c1ccc(Cl)cc1 [Example 21b, N-{5-[N′-(4-chlorophenyl)-N′-methylhydrazinocarbonyl]-1H-thieno[2,3-c]pyrazol-3-yl}-4-perhydro-1,4-oxazepin-4-ylmethylbenzamide]
